From patent publication US8734777B2, “Heterocyclic antiviral compounds” (priority 2010, dated 2014)

Columns and labels:
[1] = biological target: T1, HCV polymerase (NS5B570n-Con1) (Hepatitis C virus genotype 1b, UniProt Q9WMX2); assay: HCV NS5B RNA polymerase activity assay; type: biochemical, HCV Con1 strain
T1 construct: contains a 21 amino acid deletion at the C-terminus relative to the full-length HCV polymerase; 6-histidine (N); made in house; host or cells: E. coli strain BL21(DE) pLysS, plasmid pET17b
Procedure: The enzymatic activity of HCV polymerase (NS5B570n-Con1) was measured as the incorporation of radiolabeled nucleotide monophosphates into acid insoluble RNA products. Unincorporated radiolabeled substrate was removed by filtration and scintillant was added to the washed and dried filter plate containing radiolabeled RNA product. The amount of RNA product generated by NS5B570-Con1 at the end of the reaction was directly proportional to the amount of light emitted by the scintillant.
The N-terminal 6-histidine tagged HCV polymerase, derived from HCV Con1 strain, genotype 1b (NS5B570n-Con1) contains a 21 amino acid deletion at the C-terminus relative to the full-length HCV polymerase and was purified from E. coli strain BL21(DE) pLysS. The construct, containing the coding sequence of HCV NS5B Con1 (GenBank accession number AJ242654) was inserted into the plasmid construct pET17b, downstream of a T7 promoter expression cassette and transformed into E. coli. A single colony was grown overnight as a starter culture and later used inoculate 10 L of LB media supplemented with 100 μg/mL ampicillin at 37° C. Protein expression was induced by the addition of 0.25 mM isopropyl-β-D-thiogalactopyranoside (IPTG) when optical density at […] of the culture was between 0.6 and 0.8 and cells were harvested after 16 to 18 h at 30° C. NS5B570n-Con1 was purified to homogeneity using a three-step protocol including subsequent column chromatography on Ni-NTA, SP-Sepharose HP and Superdex 75 resins. […]
The amount of light emitted from the scintillant was converted to counts per minute (CPM) on a Topcount® plate reader (Perkin-Elmer, Energy Range: Low, Efficiency Mode: Normal, Count Time: 1 min, Background Subtract: none, Cross talk reduction: Off).
Data was analyzed in Excel® (Microsoft®) and ActivityBase® (Idbs®). […] All data was expressed as a percentage of the positive control. […]

[2] = system: HCV replicon cells (2209-23), genotype 1b replicon; assay: HCV replicon assay (Renilla luciferase reporter); type: cell-based, HCV genotype 1b; settings: Hepatitis C virus, 72 h; 2209-23 cells, three days incubation, luciferase activity
in vitro = settings: human

Structure (SMILES)	IC50 [1]	IC50 [2]	melting point	CC50 at 3 days (in vitro)
COc1c(C(C)(C)C)cc(-c2ccc[nH]c2=O)c2ccc(-c3ccc(NS(C)(=O)=O)cc3)nc12 [Compound I-1, N-{4-[7-tert-Butyl-8-methoxy-5-(2-oxo-1,2-dihydro-pyridin-3-yl)-quinolin-2-yl]-phenyl}-methanesulfonamide]	0.6 nM	–	–	–
COc1c(C(C)(C)C)cc(-c2ccc(C)[nH]c2=O)c2ccc(-c3ccc(NS(C)(=O)=O)cc3)nc12 [Compound I-2, N-{4-[7-tert-Butyl-8-methoxy-5-(6-methyl-2-oxo-1,2-dihydro-pyridin-3-yl)-quinolin-2-yl]-phenyl}-methanesulfonamide]	0.4 nM	–	–	–
COc1c(C(C)(C)C)cc(-n2ccc(=O)[nH]c2=O)c2ccc(-c3ccc(NS(C)(=O)=O)cc3)nc12 [Compound I-3, N-{4-[7-tert-Butyl-5-(2,4-dioxo-3,4-dihydro-2H-pyrimidin-1-yl)-8-methoxy-quinolin-2-yl]-phenyl}-methanesulfonamide]	0.2 nM	17 nM	275 to 278 °C	44000 nM
